We go through 11 molecules from patent US11168073B2, “3,3-difluoroallylamines or salts thereof and pharmaceutical compositions comprising the same” (YUHAN CORPORATION, priority 2018, dated 2021).

Common to all, as to format: biochemical
In assay [1] the target is T1, recombinant human MAO-A (monoamine oxidase-A) (Homo sapiens, UniProt P21397).
T1 construct: purchased Sigma-Aldrich
T1 sequence (P21397 1-527): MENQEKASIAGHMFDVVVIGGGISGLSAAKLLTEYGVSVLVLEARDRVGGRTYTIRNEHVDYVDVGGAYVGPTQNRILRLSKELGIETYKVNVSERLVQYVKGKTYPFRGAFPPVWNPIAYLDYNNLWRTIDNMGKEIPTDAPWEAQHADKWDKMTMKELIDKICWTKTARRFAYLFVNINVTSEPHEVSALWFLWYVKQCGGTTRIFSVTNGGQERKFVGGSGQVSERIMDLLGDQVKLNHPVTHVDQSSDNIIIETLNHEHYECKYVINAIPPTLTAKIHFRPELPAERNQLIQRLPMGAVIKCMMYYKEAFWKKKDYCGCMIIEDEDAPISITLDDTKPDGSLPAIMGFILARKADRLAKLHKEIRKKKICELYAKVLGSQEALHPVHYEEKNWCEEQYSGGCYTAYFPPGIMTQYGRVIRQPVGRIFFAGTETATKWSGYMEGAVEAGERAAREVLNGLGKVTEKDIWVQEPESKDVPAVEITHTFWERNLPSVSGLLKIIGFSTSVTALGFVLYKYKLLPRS
The experiment in a line: Activity evaluation on recombinant human MAO-A (Amplex Red/HRP-coupled assay, 0.5 mM tyramine substrate). Particulars: read-out: Inhibitory Activity (IC50, nM) MAO-A. An outline of the steps:
(§1)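 Using an HRP-coupled Amplex Red readout (544/590 nm, kinetic over 1–2 h), IC50 values were fitted by 4-parameter logistic model to percent decrease in signal rate against DMSO control. Compounds (1:3 dilutions, 8 points, <1% DMSO) sat 30 min at 37 °C with enzyme in pH 7.4 phosphate buffer before substrate, 200 uM Amplex Red and HRP were added.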

The target of a further assay is T2, recombinant human VAP-1 (Homo sapiens, UniProt Q16853).
T2 construct: purchased R&D systems
T2 sequence (Q16853 1-763): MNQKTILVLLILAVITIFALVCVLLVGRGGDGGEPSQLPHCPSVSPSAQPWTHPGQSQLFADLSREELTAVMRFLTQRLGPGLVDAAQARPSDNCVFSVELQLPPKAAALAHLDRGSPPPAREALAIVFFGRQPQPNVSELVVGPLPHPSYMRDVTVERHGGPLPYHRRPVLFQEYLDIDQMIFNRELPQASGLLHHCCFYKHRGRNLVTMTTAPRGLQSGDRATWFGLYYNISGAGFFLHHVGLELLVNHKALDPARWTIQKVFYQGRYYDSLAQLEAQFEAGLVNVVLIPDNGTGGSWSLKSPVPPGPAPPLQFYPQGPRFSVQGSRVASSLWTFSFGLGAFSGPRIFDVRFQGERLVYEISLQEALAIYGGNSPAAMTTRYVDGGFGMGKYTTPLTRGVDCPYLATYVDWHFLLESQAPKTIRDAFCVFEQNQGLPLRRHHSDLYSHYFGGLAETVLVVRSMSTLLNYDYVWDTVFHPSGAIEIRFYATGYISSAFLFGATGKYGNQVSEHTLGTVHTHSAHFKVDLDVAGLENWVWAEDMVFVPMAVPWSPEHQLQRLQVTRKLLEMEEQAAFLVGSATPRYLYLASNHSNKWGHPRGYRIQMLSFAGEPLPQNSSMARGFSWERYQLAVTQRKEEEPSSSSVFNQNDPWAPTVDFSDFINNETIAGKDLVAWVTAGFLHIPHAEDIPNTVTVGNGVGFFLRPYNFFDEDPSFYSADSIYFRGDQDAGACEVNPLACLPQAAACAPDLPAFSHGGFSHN
As to the kind of experiment: Activity evaluation on recombinant human VAP-1 (Amplex Red/HRP-coupled hydrogen peroxide assay, benzylamine substrate). Particulars: read-out: Inhibitory Activity (IC50, nM) human VAP-1. An outline of the steps: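 Hydrogen peroxide from benzylamine (1 mM) oxidation by human recombinant VAP-1 detected via HRP-coupled Amplex Red (200 uM) fluorescence, kinetic over 1–2 h. Enzyme and compound preincubated 30 min at 37 °C, pH 7.4 phosphate; 8-point dose response, signal-rate decrease versus DMSO control fitted to four-parameter logistic for IC50.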

Assay [2] has as its target T3, recombinant human DAO (diamine oxidase) (Homo sapiens, UniProt P19801).
T3 construct: purchased R&D systems
T3 sequence (P19801 20-751): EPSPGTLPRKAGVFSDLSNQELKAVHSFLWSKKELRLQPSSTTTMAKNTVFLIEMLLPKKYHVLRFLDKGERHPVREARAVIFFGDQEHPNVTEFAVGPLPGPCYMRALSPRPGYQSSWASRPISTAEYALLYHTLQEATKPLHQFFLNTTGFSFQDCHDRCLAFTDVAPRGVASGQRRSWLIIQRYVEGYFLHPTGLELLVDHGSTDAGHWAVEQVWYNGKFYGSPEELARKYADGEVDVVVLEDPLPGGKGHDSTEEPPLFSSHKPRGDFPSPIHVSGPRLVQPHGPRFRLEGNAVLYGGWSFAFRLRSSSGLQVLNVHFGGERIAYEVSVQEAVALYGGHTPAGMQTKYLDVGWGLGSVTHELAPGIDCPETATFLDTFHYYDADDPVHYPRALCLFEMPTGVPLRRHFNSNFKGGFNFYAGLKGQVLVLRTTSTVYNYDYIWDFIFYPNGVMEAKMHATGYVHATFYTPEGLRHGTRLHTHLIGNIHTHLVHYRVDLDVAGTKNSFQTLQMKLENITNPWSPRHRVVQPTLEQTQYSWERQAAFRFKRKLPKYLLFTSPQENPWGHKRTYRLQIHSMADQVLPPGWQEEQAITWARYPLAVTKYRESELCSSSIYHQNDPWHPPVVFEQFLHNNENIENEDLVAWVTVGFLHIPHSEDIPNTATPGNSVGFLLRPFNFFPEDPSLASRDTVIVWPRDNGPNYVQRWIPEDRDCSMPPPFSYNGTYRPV
As to the kind of experiment: Activity evaluation on recombinant human DAO (Amplex Red/HRP-coupled assay, 1 mM putrescine substrate). Particulars: read-out: Inhibitory Activity (IC50, nM) DAO. An outline of the steps: as §1

For assay [3], the target named is T4, recombinant human MAO-B (monoamine oxidase-B) (Homo sapiens, UniProt P27338).
T4 construct: purchased Sigma-Aldrich
T4 sequence (P27338 1-520): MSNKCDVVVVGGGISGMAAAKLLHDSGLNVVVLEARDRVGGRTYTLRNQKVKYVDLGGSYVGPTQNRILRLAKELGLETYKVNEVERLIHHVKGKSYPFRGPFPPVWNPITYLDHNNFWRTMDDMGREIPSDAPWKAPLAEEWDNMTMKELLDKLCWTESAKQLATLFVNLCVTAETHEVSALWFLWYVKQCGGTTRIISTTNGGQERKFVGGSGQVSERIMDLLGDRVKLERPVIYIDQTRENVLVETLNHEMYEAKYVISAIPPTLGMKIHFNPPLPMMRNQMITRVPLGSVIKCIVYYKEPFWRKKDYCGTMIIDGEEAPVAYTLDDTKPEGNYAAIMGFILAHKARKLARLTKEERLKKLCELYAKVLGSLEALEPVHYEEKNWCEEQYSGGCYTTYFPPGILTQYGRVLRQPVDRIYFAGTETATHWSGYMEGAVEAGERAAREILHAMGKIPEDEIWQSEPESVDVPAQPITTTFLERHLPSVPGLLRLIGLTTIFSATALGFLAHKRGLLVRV
As to the kind of experiment: Activity evaluation on recombinant human MAO-B (Amplex Red/HRP-coupled assay, 1 mM benzylamine substrate). The following applies: read-out: Inhibitory Activity (IC50, nM) MAO-B. In outline:
as §1

Setting [4] is: recombinant human VAP-1, benzylamine substrate.
[5] abbreviates: recombinant human VAP-1, 30 min preincubation at 37° C., 1 mM benzylamine.

Where a name gives a salt, the structure may show the parent alone. Read-outs that look alike come from different tables or passages of the source.

Consider `Cc1cc(-c2cccc(-c3nc[nH]n3)c2)cnc1-n1cnn(CC(CN)=C(F)F)c1=O` [Example 239, 2-[2-(aminomethyl)-3,3-difluoro-allyl]-4-[3-methyl-5-[3-(1H-1,2,4-triazol-3-yl)phenyl]-2-pyridyl]-1,2,4-triazol-3-one trifluoroacetate], for which the IC50 is above 100000 nM in assay [1] (0.5 mM tyramine substrate), 2.7 nM at recombinant human VAP-1 (setting [4]), 11000 nM in assay [2] (1 mM putrescine substrate) and 14000 nM in assay [3] (1 mM benzylamine substrate).
Turning to `Cn1c(-c2ccc(Cn3cnn(CC(CN)=C(F)F)c3=O)s2)cnc1Cl` [Example 120, 2-[2-(aminomethyl)-3,3-difluoro-allyl]-4-[[5-(2-chloro-3-methyl-imidazol-4-yl)-2-thienyl]methyl]-1,2,4-triazol-3-one Trifluoroacetate], the IC50 in assay [1] (0.5 mM tyramine) is above 100000 nM; on recombinant human VAP-1 (setting [5]), 6 nM; in assay [2] (1 mM putrescine), above 100000 nM; in assay [3] (1 mM benzylamine) it was above 100000 nM.
As to `Cn1cc(C#Cc2cccc(-n3cnn(CC(CN)=C(F)F)c3=O)n2)cn1` [Example 160, 2-[2-(aminomethyl)-3,3-difluoro-allyl]-4-[6-[2-(1-methylpyrazol-4-yl)ethynyl]-2-pyridyl]-1,2,4-triazol-3-one trifluoroacetate], the IC50 in assay [1] (0.5 mM tyramine) is above 100000 nM; on recombinant human VAP-1 (setting [5]), 1.5 nM; in assay [2] (1 mM putrescine), 5090 nM; in assay [3] (1 mM benzylamine) it was 15600 nM.
With `Cc1cc(C#Cc2cnc3c(c2)NC(=O)CO3)cnc1-n1cnn(CC(CN)=C(F)F)c1=O` [Example 247, 7-[2-[6-[1-[2-(aminomethyl)-3,3-difluoro-allyl]-5-oxo-1,2,4-triazol-4-yl]-5-methyl-3-pyridyl]ethynyl]-1H-pyrido[2,3-b][1,4]oxazin-2-one Trifluoroacetate], the IC50 in assay [1] (0.5 mM tyramine substrate) is above 100000 nM; at recombinant human VAP-1 (setting [4]), 0.3 nM; in assay [2] (1 mM putrescine substrate), 43000 nM; in assay [3] (1 mM benzylamine substrate), above 100000 nM.
Consider `Cc1c(-c2ccc(N(C)C)nc2)cccc1-n1cnn(CC(CN)=C(F)F)c1=O` [Example 256, 2-[2-(aminomethyl)-3,3-difluoro-allyl]-4-[3-[6-(dimethylamino)-3-pyridyl]-2-methyl-phenyl]-1,2,4-triazol-3-one Trifluoroacetate], for which the IC50 in assay [1] (0.5 mM tyramine substrate) is above 100000 nM; on recombinant human VAP-1 (setting [4]), 2.5 nM; in assay [2] (1 mM putrescine substrate), above 100000 nM; in assay [3] (1 mM benzylamine substrate), above 100000 nM.
On to `CCn1cc(-c2cccc(Cn3cnn(CC(CN)=C(F)F)c3=O)c2)ccc1=O` [Example 277, 5-[3-[[1-[2-(aminomethyl)-3,3-difluoro-allyl]-5-oxo-1,2,4-triazol-4-yl]methyl]phenyl]-1-ethyl-pyridin-2-one Trifluoroacetate], for which the IC50 is above 100000 nM in assay [1] (0.5 mM tyramine substrate), 2.5 nM at recombinant human VAP-1 (setting [4]), 1810 nM in assay [2] (1 mM putrescine substrate) and 68600 nM in assay [3] (1 mM benzylamine substrate).
In the same order, the values of `Cc1cc(-c2ccc(S(=O)(=O)N(C)C)cc2)cnc1-n1cnn(CC(CN)=C(F)F)c1=O` [Example 238, 4-[6-[1-[2-(aminomethyl)-3,3-difluoro-allyl]-5-oxo-1,2,4-triazol-4-yl]-5-methyl-3-pyridyl]-N,N-dimethyl-benzenesulfonamide trifluoroacetate] are above 100000 nM, 0.14 nM, 310 nM and 1800 nM.
Turning to `Cc1cc(-c2ccc(CCn3cnn(CC(CN)=C(F)F)c3=O)s2)cc2c1NC(=O)CC2` [Example 178, 6-[5-[2-[1-[2-(aminomethyl)-3,3-difluoro-allyl]-5-oxo-1,2,4-triazol-4-yl]ethyl]-2-thienyl]-8-methyl-3,4-dihydro-1H-quinolin-2-one Trifluoroacetate], the IC50 is above 100000 nM in assay [1] (0.5 mM tyramine), 0.6 nM on recombinant human VAP-1 (setting [5]), 350 nM in assay [2] (1 mM putrescine) and above 100000 nM in assay [3] (1 mM benzylamine).
For `COc1ccc(-c2cnc(-n3cnn(CC(CN)=C(F)F)c3=O)c(C)c2)cn1` [Example 225, 2-[2-(aminomethyl)-3,3-difluoro-allyl]-4-[5-(6-methoxy-3-pyridyl)-3-methyl-2-pyridyl]-1,2,4-triazol-3-one Trifluoroacetate], the IC50 was above 100000 nM in assay [1] (0.5 mM tyramine substrate), 0.5 nM at recombinant human VAP-1 (setting [4]), 14000 nM in assay [2] (1 mM putrescine substrate) and 1600 nM in assay [3] (1 mM benzylamine substrate).
For `NCC(Cn1ncn(Cc2ccccc2-c2ccc3c(c2)OCO3)c1=O)=C(F)F` [Example 282, 2-[2-(aminomethyl)-3,3-difluoro-allyl]-4-[[2-(1,3-benzodioxol-5-yl)phenyl]methyl]-1,2,4-triazol-3-one Trifluoroacetate], the IC50 in assay [1] (0.5 mM tyramine substrate) is above 100000 nM; on recombinant human VAP-1 (setting [4]), 28 nM; in assay [2] (1 mM putrescine substrate) it was above 100000 nM; in assay [3] (1 mM benzylamine substrate), above 100000 nM.
For the molecule `Cc1c(-c2ccc(S(C)(=O)=O)cc2)cccc1-n1cnn(CC(CN)=C(F)F)c1=O` [Example 253, 2-[2-(aminomethyl)-3,3-difluoro-allyl]-4-[2-methyl-3-(4-methylsulfonylphenyl)phenyl]-1,2,4-triazol-3-one Trifluoroacetate], the IC50 in assay [1] (0.5 mM tyramine substrate) is above 100000 nM; on recombinant human VAP-1 (setting [4]), 2.8 nM; in assay [2] (1 mM putrescine substrate), 8700 nM; in assay [3] (1 mM benzylamine substrate), above 100000 nM.

For orientation: IC50 means the concentration at which inhibition is half-maximal.
